Experimental data: US9788541B2, “Antibacterial surfactant/microgel formulations, methods of making and methods of using the same” (The University of Toledo, priority 2012, dated 2017)

Tested on: Pseudomonas aeruginosa PAO1
Assay: Antibacterial activity test, viable cell counts by heterotrophic plate count
Format: cell-based
Settings: microgel-free surfactant solutions (10 mmol/kg SDS, 14.4 mmol/kg TX-100, 3.0 mmol/kg 40:60 SDS:TX100), 0-30 min; FIG. 5 Groups 6-8
Experimental: The effect of anionic and nonionic surfactants on the microgel antibacterial properties was probed using Pseudomonas aeruginosa (wild-type P. aeruginosa PAOI strain) as model Gram-negative bacteria. The bacteria were cultured in one-tenth strength LB broth (2.5 g/L, Difco Laboratory, Detroit, Mich.) at 37° C. until the late-exponential phase. Bacterial cells were then harvested by centrifugation at 2,000 g for 15 min (using an Eppendorf 5804R centrifuge; Hamburg, Germany), washed and resuspended in phosphate buffer (0.54 g Na2HPQ4 and 0.88 g KH2PO4 per liter, pH=6.98) as bacterial suspensions (0D600=0.25±0.02).
Each antimicrobial formulation sample was then tested in triplicate at room temperature (22±2° C.). The bacterial suspension was mixed with the surfactant/microgel formulations in a 1:1000 ratio (e.g., 15 μl:15 ml). After mixing, samples were taken at 5, 15, and 30 min to quantify the effect of surfactant/microgel formulations on the number of viable cells. The viable cells were enumerated at each time point using the heterotrophic plate count method with R2A agar plates (Difco Laboratories, Detroit, Mich.).
The antibacterial activity of the surfactant/microgel formulations was tested using Pseudomonas aeruginosa PAO1 as a model Gram-negative bacteria. […]

Molecule | effect on bacterial viability
CCCCCCCCCCCCOS(=O)(=O)[O-].[Na+] [SDS, sodium dodecyl sulfate] | no short-term effect on bacterial viability
t-octylphenoxypolyethoxyethanol [TX100] | no short-term effect on bacterial viability
